Literature values, collected in article PMC3212850 (ACS Medicinal Chemistry Letters, 2011).

System: cell lines

Substance: apratoxin B
- activity relative to apratoxin A: reduces activity
